Measured values published in ChEMBL document CHEMBL1201862, “PubChem BioAssay data set” (2004).
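48-hour exposure; five concentrations; linearly interpolated endpoints. The concentration for 50% growth inhibition is given as GI50.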 The source made the active and inactive calls. Rule as the data show it: active = GI50 up to about 1.1 µM and inactive = higher.

What was measured:
Experiment in all cases: NCI tumour cell line growth inhibition, 48 h
[1] = test system: EKVX
[2] = test system: HL-60
[3] = test system: SNB-19
[4] = test system: NCI-H460
[5] = test system: SF-539
[6] = test system: U-251
[7] = test system: A549
[8] = test system: CAKI-1
[9] = test system: SF-295
[10] = test system: OVCAR-5
[11] = test system: MCF7
[12] = test system: MOLT-4
[13] = test system: SF-268
[14] = test system: HOP-62
[15] = test system: NCI-H23
[16] = test system: HCC 2998
[17] = test system: HT-29
[18] = test system: COLO 205
[19] = test system: IGROV-1
[20] = test system: SK-MEL-2

Compound | GI50 [1] | GI50 [2] | GI50 [3] | GI50 [4] | GI50 [5] | GI50 [6] | GI50 [7] | GI50 [8] | GI50 [9] | GI50 [10] | GI50 [11] | GI50 [12] | GI50 [13] | GI50 [14] | GI50 [15] | GI50 [16] | GI50 [17] | GI50 [18] | GI50 [19] | GI50 [20]
Oc1cc(Cl)cc2cc(Br)cnc12 | 4.14 µM (inactive) | 0.258 µM (active) | 4.1 µM (inactive) | 1.99 µM (inactive) | 2.18 µM (inactive) | 2.07 µM (inactive) | 3.27 µM (inactive) | 6.79 µM (inactive) | 2.96 µM (inactive) | 8.95 µM (inactive) | 3.1 µM (inactive) | 2.04 µM (inactive) | 1.59 µM (inactive) | 3.4 µM (inactive) | 4.39 µM (inactive) | 15.6 µM (inactive) | 11.3 µM (inactive) | 41.6 µM (inactive) | 2.92 µM (inactive) | –
CC(C)c1nccn1Cc1ccc(Cl)cc1Cl | 25.5 µM (inactive) | – | 48.5 µM (inactive) | 34 µM (inactive) | 61.2 µM (inactive) | 41.5 µM (inactive) | 34.4 µM (inactive) | 53.7 µM (inactive) | 14.5 µM (inactive) | 27.7 µM (inactive) | 34.1 µM (inactive) | – | 76.9 µM (inactive) | 66.7 µM (inactive) | 27.4 µM (inactive) | 23.4 µM (inactive) | 28.8 µM (inactive) | 29.2 µM (inactive) | > 100 µM (inactive) | 74.3 µM (inactive)
CC1C2CC(C(C3C(=O)C4CC3C(C)(C)C4C)C2=O)C1(C)C (stereo not given) | > 100 µM (inactive) | > 100 µM (inactive) | > 100 µM (inactive) | > 100 µM (inactive) | > 100 µM (inactive) | > 100 µM (inactive) | > 100 µM (inactive) | > 100 µM (inactive) | > 100 µM (inactive) | > 100 µM (inactive) | > 100 µM (inactive) | > 100 µM (inactive) | > 100 µM (inactive) | > 100 µM (inactive) | > 100 µM (inactive) | > 100 µM (inactive) | > 100 µM (inactive) | > 100 µM (inactive) | > 100 µM (inactive) | –
CC1(C)C2CCC1(C)[C@H](O)[C@H]2Nc1cc(C(F)(F)F)cc(C(F)(F)F)c1 (stereo not given in full) | 3.83 µM (inactive) | – | 4.48 µM (inactive) | 3.71 µM (inactive) | 4.66 µM (inactive) | 4.15 µM (inactive) | 3.7 µM (inactive) | 3.76 µM (inactive) | 2.37 µM (inactive) | 7.41 µM (inactive) | > 100 µM (inactive) | 2.19 µM (inactive) | 3.14 µM (inactive) | 5.48 µM (inactive) | 2.36 µM (inactive) | 3.38 µM (inactive) | 3.32 µM (inactive) | 1.79 µM (inactive) | 4.74 µM (inactive) | 2.35 µM (inactive)
O=C1[C@@H]2[C@@H](CN3CN(c4ccccc4)N=C(c4ccccc4)[C@@]23c2ccccc2)C(=O)N1c1ccccc1 | 4.89 µM (inactive) | 2.25 µM (inactive) | 16.7 µM (inactive) | 19.8 µM (inactive) | – | 8.99 µM (inactive) | 6.11 µM (inactive) | 0.863 µM (active) | 15.1 µM (inactive) | 4.7 µM (inactive) | 1.94 µM (inactive) | 2.84 µM (inactive) | 18.8 µM (inactive) | 14 µM (inactive) | 8.69 µM (inactive) | 25.2 µM (inactive) | 2.36 µM (inactive) | 1.91 µM (inactive) | 13.8 µM (inactive) | 14.9 µM (inactive)
CC(C)=C[C@@H]1C[C@H](C)[C@H]2CC[C@H](C)[C@H]3C(=O)C(O)=C(C)C(=O)[C@]123 | > 100 µM (inactive) | > 100 µM (inactive) | > 100 µM (inactive) | > 100 µM (inactive) | > 100 µM (inactive) | > 100 µM (inactive) | 57.8 µM (inactive) | > 100 µM (inactive) | > 100 µM (inactive) | > 100 µM (inactive) | > 100 µM (inactive) | > 100 µM (inactive) | > 100 µM (inactive) | > 100 µM (inactive) | > 100 µM (inactive) | > 100 µM (inactive) | > 100 µM (inactive) | > 100 µM (inactive) | > 100 µM (inactive) | –
CC1=CCC2CC1C(C(=O)c1c[nH]c3ccccc13)=NC2(C)C (stereo not given) | 33.3 µM (inactive) | 20.8 µM (inactive) | > 100 µM (inactive) | 52.4 µM (inactive) | > 100 µM (inactive) | 34.5 µM (inactive) | 61 µM (inactive) | > 100 µM (inactive) | – | > 100 µM (inactive) | 54.6 µM (inactive) | 22.9 µM (inactive) | > 100 µM (inactive) | > 100 µM (inactive) | 87.7 µM (inactive) | > 100 µM (inactive) | 51.1 µM (inactive) | 52.2 µM (inactive) | > 100 µM (inactive) | –
CC(Cc1ccc2c(c1)OCO2)N(C)C(=O)C1=CCN(C)CC1 (stereo not given) | > 100 µM (inactive) | > 100 µM (inactive) | > 100 µM (inactive) | > 100 µM (inactive) | – | > 100 µM (inactive) | > 100 µM (inactive) | > 100 µM (inactive) | > 100 µM (inactive) | > 100 µM (inactive) | > 100 µM (inactive) | > 100 µM (inactive) | > 100 µM (inactive) | > 100 µM (inactive) | > 100 µM (inactive) | > 100 µM (inactive) | > 100 µM (inactive) | > 100 µM (inactive) | > 100 µM (inactive) | > 100 µM (inactive)
CC12CCC3C(CCC4=CC(O)CCC43C=O)C1(O)CCC2c1ccc(=O)oc1 (stereo not given) | 0.0124 µM (active) | 0.00395 µM (active) | 0.00622 µM (active) | 0.00182 µM (active) | 0.00385 µM (active) | 0.00556 µM (active) | – | – | 0.0104 µM (active) | 0.0693 µM (active) | 0.05 µM (active) | – | – | 0.05 µM (active) | 0.00226 µM (active) | 0.021 µM (active) | 0.00929 µM (active) | 0.0169 µM (active) | 0.00984 µM (active) | 0.0116 µM (active)
Nc1nc(Cl)cc(NCC2(CO)CCC(OCc3ccccc3)C2)n1 (stereo not given) | 10.2 µM (inactive) | 21.4 µM (inactive) | 23.1 µM (inactive) | 19.3 µM (inactive) | 29.7 µM (inactive) | 29.9 µM (inactive) | 15.2 µM (inactive) | 8.09 µM (inactive) | 31 µM (inactive) | 37.7 µM (inactive) | 1.59 µM (inactive) | 4.99 µM (inactive) | 26.2 µM (inactive) | 25.4 µM (inactive) | 0.641 µM (active) | – | 11.1 µM (inactive) | 21.1 µM (inactive) | 18.2 µM (inactive) | 21.3 µM (inactive)
O=C(NS(=O)(=O)OCC(Cl)(Cl)Cl)SCCC(F)(F)C(F)(F)C(F)(F)C(F)(F)C(F)(F)C(F)(F)F | 18.3 µM (inactive) | 23.1 µM (inactive) | 17.9 µM (inactive) | 19.6 µM (inactive) | 16.8 µM (inactive) | 23.6 µM (inactive) | 30.2 µM (inactive) | 30.5 µM (inactive) | 20.2 µM (inactive) | 18.6 µM (inactive) | 20 µM (inactive) | 29 µM (inactive) | 40.4 µM (inactive) | 28.2 µM (inactive) | 20.1 µM (inactive) | – | 18.8 µM (inactive) | 17.9 µM (inactive) | 37.4 µM (inactive) | 25.3 µM (inactive)
CC/C=C/C[C@H](O[Si](C)(C)C(C)(C)C)[C@H]1C[C@H]2O[C@H]([C@@H](O)C#C[Si](C)(C)C)C[C@H]2O1 | 12.9 µM (inactive) | 3.84 µM (inactive) | 13.8 µM (inactive) | 15.8 µM (inactive) | – | 15.5 µM (inactive) | 10.1 µM (inactive) | 11.3 µM (inactive) | 14.3 µM (inactive) | 14.1 µM (inactive) | 6.92 µM (inactive) | 12.6 µM (inactive) | 13.8 µM (inactive) | 16.1 µM (inactive) | 12 µM (inactive) | 15.9 µM (inactive) | 11.9 µM (inactive) | 13.5 µM (inactive) | 14.3 µM (inactive) | 15.5 µM (inactive)
Cc1nc2ccccc2cc1C[N+]12CN3CN(CN(C3)C1)C2 | 23.3 µM (inactive) | – | 23.8 µM (inactive) | 18.2 µM (inactive) | 14.2 µM (inactive) | 12.1 µM (inactive) | 30.8 µM (inactive) | 27.5 µM (inactive) | 22.9 µM (inactive) | 23.8 µM (inactive) | 4.29 µM (inactive) | 34 µM (inactive) | 22.7 µM (inactive) | 24.5 µM (inactive) | 17.5 µM (inactive) | 17.1 µM (inactive) | 15.7 µM (inactive) | 14.1 µM (inactive) | 31.4 µM (inactive) | 18.6 µM (inactive)
C=C(C)COc1ccc2c(c1)CCC1C2CCC2(C)C(=O)/C(=N/O)CC12 (stereo not given) | 2.59 µM (inactive) | 1.78 µM (inactive) | 11.8 µM (inactive) | 1.57 µM (inactive) | 12.8 µM (inactive) | 4.09 µM (inactive) | 9.62 µM (inactive) | 1.21 µM (inactive) | 4.37 µM (inactive) | 3.93 µM (inactive) | 2.9 µM (inactive) | 1.76 µM (inactive) | 3.81 µM (inactive) | 5.43 µM (inactive) | 3.21 µM (inactive) | – | 1.31 µM (inactive) | 3.21 µM (inactive) | 1.61 µM (inactive) | 4.14 µM (inactive)
CCCc1[nH]c2ccccc2c1-c1c(CCC)[nH]c2ccccc12 | 16.8 µM (inactive) | – | 13.5 µM (inactive) | 23.9 µM (inactive) | 8.36 µM (inactive) | 6.71 µM (inactive) | 27.7 µM (inactive) | 18.6 µM (inactive) | 15.7 µM (inactive) | 16.9 µM (inactive) | 4.66 µM (inactive) | 30.1 µM (inactive) | 9.62 µM (inactive) | 16.9 µM (inactive) | 8.05 µM (inactive) | 22.9 µM (inactive) | 8.61 µM (inactive) | 17.9 µM (inactive) | 12 µM (inactive) | 14.2 µM (inactive)
